Assay results taken from patent US20220362276A1, “Small Molecule Inhibitors of Viral Replication” (The Trustees of Princeton University, priority 2019, published 2022).
“Also recorded” adds a separate entry of the source.

Experiments:
[1] = test system: translation of T7-tagBFP-Gluc; assay: Translation inhibition assay (T7-tagBFP-Gluc RNA in Huh7 cells); format: cell-based; conditions: 4 days
Excerpt: Generation of T7-tagBFP-Gluc. To make the T7-TagBFP-GLuc construct, SP6-TagBFP-2A-FLuc was used as a template and the primers PU-O-6099 and PU-O-6100 were designed to partially anneal immediately upstream and downstream of the SP6 promoter. The unbound portions of PU-O-6099 and PU-O-6100 contained the T7 promoter sequence. […] Next, PCR amplification of the T7-TagBFP-2A backbone was completed using the Q5® High-Fidelity DNA Polymerase and PU-O-6101 and PU-O-6102 as the primers. […] The Gluc insert was then ligated to the T7-TagBFP-2A backbone using the In-Fusion® HD Cloning Kit.
Translation Inhibition Assay. Huh7 cells were seeded at 6,250 cells per well in 96-well format. The cells were then transfected with 50 ng T7-TagBFP-Gluc in vitro transcribed RNA per well. Five hours post-transfection, transfection medium was changed to medium containing isocotoin, ribavirin, cycloheximide, or roclagamide at 6 or 7 different concentrations. DMSO concentration was kept constant in all the wells at 0.125%. For each drug dose, triplicate wells were tested. On day four post-transfection, a luciferase assay was performed on supernatant media to measure Gluc expression.

[2] = test system: p6/Gluc (HEVΔORF2/3[Gluc]) replicon, KernowC1p6 genotype 3; assay: Dose titration against p6/Gluc replicon in Huh7 cells, Gaussia luciferase readout; format: cell-based, hepatitis E virus; conditions: for inhibition of p6/Gluc (HEV) replication, in words: Huh7 cells, supernatant Gluc
Description: Gaussia luciferase assays.
Statistics—calculation of IC50. Half maximal inhibitory concentrations were calculated by graphing dose-titration data as nonlinear curve fits with three parameters using GraphPad Prism (v8.1.2).

[3] = test system: Huh7 cells; assay: ATP-based cell viability assay (CellTiterGlo); conditions: ATP live-cell viability assay
Description: Measurement of Cytotoxicity by CellTiterGlo Assay. […] Readout was performed using a Berthold luminometer.

| SMILES | inhibition of p6/Gluc (HEV) replication, in words [2] | cytotoxicity / inhibition of cell growth, in words [3] | other results |
| --- | --- | --- | --- |
| COc1ccc([C@@]23Oc4cc(OC)cc(OC)c4C2(O)[C@H](O)[C@H](C(=O)N(C)C)[C@H]3c2ccccc2)cc1 (stereo in doubt) [roclagamide, (1R,2R,3S,3aR,8bS)-1,8b-dihydroxy-6,8-dimethoxy-3a-(4-methoxyphenyl)-N,N-dimethyl-3-phenyl-2,3-dihydro-1H-cyclopenta[b][1]benzofuran-2-carboxamide, reference compound] |  |  | suppression of Gluc levels [1]: ~10 fold |
| C=CCNC1=C2C[C@@H](C)C[C@H](OC)[C@H](O)[C@@H](C)/C=C(\C)[C@H](OC(N)=O)[C@@H](OC)/C=C\C=C(/C)C(=O)NC(=CC1=O)C2=O [17-AAG, [(4E,6Z,8S,9S,10E,12S,13R,14S,16R)-13-hydroxy-8,14-dimethoxy-4,10,12,16-tetramethyl-3,20,22-trioxo-19-(prop-2-enylamino)-2-azabicyclo[16.3.1]docosa-1(21),4,6,10,18-pentaen-9-yl] carbamate, reference compound] | inhibited HEV replication; also recorded: potent inhibitors | cytostatic properties; also recorded: inhibitors of cell growth |  |
| CCNC(=O)c1noc(-c2cc(C(C)C)c(O)cc2O)c1-c1ccc(CN2CCOCC2)cc1 [AUY-922, 5-(2,4-dihydroxy-5-propan-2-ylphenyl)-N-ethyl-4-[4-(morpholin-4-ylmethyl)phenyl]-1,2-oxazole-3-carboxamide, reference compound] | inhibited HEV replication; also recorded: potent inhibitors; also recorded: most potent analogs |  |  |
| O=C(c1ccc(Cl)cc1)c1ccc(O)cc1O [IBS102, (4-chlorophenyl)-(2,4-dihydroxyphenyl)methanone] |  |  | fold greater decrease in RLU than isocotoin ([2]; 25 μM dose, first round of SAR): approximately 10 fold |
| COc1ccc(-c2c(C)noc2-c2ccc(O)cc2O)cc1 [IBS672, 4-[4-(4-methoxyphenyl)-3-methyl-1,2-oxazol-5-yl]benzene-1,3-diol] |  |  | fold greater decrease in RLU than isocotoin ([2]; 1.5625 μM, second round of SAR): approximately 40 fold |
| CC(C)c1cc(-c2n[nH]c(=O)n2-c2ccc3c(ccn3C)c2)c(O)cc1O [STA-9090, 3-(2,4-dihydroxy-5-propan-2-ylphenyl)-4-(1-methylindol-5-yl)-1H-1,2,4-triazol-5-one, reference compound] | inhibited HEV replication; also recorded: potent inhibitors | cytostatic properties; also recorded: inhibitors of cell growth |  |
| CCNC(=O)c1noc(-c2cc(Cl)c(O)cc2O)c1-c1ccc(OC)cc1 [VER-50589, 5-(5-chloro-2,4-dihydroxyphenyl)-N-ethyl-4-(4-methoxyphenyl)-1,2-oxazole-3-carboxamide, reference compound] | inhibited HEV replication; also recorded: potent inhibitors; also recorded: most potent analogs | cytostatic properties; also recorded: inhibitors of cell growth |  |
| C[C@@H]1C[C@@H]([C@H](O)CC2CC(=O)NC(=O)C2)C(=O)[C@@H](C)C1 [cycloheximide, reference compound] |  |  | suppression of Gluc levels [1]: ~10 fold |
| C[C@H]1O[C@@H](O[C@H]2[C@@H](O)C[C@H](O[C@H]3[C@@H](O)C[C@H](O[C@H]4CC[C@@]5(C)[C@H](CC[C@@H]6[C@@H]5CC[C@]5(C)[C@@H](C7=CC(=O)OC7)[C@@H](O)C[C@]65O)C4)O[C@@H]3C)O[C@@H]2C)C[C@H](O)[C@@H]1O [gitoxin] | dose-dependent inhibition | high cytotoxicity |  |
